The CheMixHub ionic liquid set
± gives the uncertainty stated by the source.

Experiment: xn = mol fraction of the nth substance listed
Details: 101 kPa; for electrical conductivity: x1 = 1

CCCCCCCC[n+]1ccc2ccccc2c1.O=S(=O)([N-]S(=O)(=O)C(F)(F)F)C(F)(F)F + OCCc1ccccc1
Details	viscosity [mPa·s]
298.15 K, x2 = 0.5766	60.64 ± 0.67
298.15 K, x2 = 0.8956	18.61 ± 0.19
308.15 K, x2 = 0.695	25 ± 0.29
318.15 K, x2 = 0.1985	71.5 ± 1.1
318.15 K, x2 = 0.3748	45.28 ± 0.57
318.15 K, x2 = 0.5766	23.86 ± 0.26
328.15 K, x2 = 0.0851	58.53 ± 0.8
328.15 K, x2 = 0.3748	30.17 ± 0.35
328.15 K, x2 = 0.5766	16.54 ± 0.17
328.15 K, x2 = 0.695	11.76 ± 0.11
338.15 K, x2 = 0.0851	39.05 ± 0.56
338.15 K, x2 = 0.3748	21.2 ± 0.25
338.15 K, x2 = 0.695	8.67 ± 0.08

CC[n+]1ccn(C)c1.O=S(=O)([O-])C(F)(F)F + [I-].[Li+]
Details	electrical conductivity [S/m]
288.15 K	0.605 ± 0.061
298.15 K	0.859 ± 0.086
333.15 K	2.24 ± 0.22

CCCCCCCC[n+]1ccc2ccccc2c1.O=S(=O)([N-]S(=O)(=O)C(F)(F)F)C(F)(F)F + c1ccccc1
Details	viscosity [mPa·s]
298.15 K, x2 = 0	369 ± 25
298.15 K, x2 = 0.4679	67 ± 1.5
298.15 K, x2 = 0.673	10.93 ± 0.24
298.15 K, x2 = 0.7443	5.93 ± 0.13
308.15 K, x2 = 0.4679	40.99 ± 0.91
318.15 K, x2 = 0	108.7 ± 3.6
318.15 K, x2 = 0.332	47.7 ± 1.1
318.15 K, x2 = 0.5663	16.93 ± 0.37
328.15 K, x2 = 0.1505	50.4 ± 1.1
328.15 K, x2 = 0.332	31.8 ± 0.71
328.15 K, x2 = 0.673	4.75 ± 0.1
338.15 K, x2 = 0.673	3.83 ± 0.08
338.15 K, x2 = 0.8143	1.48 ± 0.03
348.15 K, x2 = 0.332	16.29 ± 0.36
348.15 K, x2 = 0.654	4.92 ± 0.11
348.15 K, x2 = 0.8961	0.49 ± 0.01

CCCCCCCC[n+]1ccc2ccccc2c1.O=S(=O)([N-]S(=O)(=O)C(F)(F)F)C(F)(F)F + c1ccncc1
Details	viscosity [mPa·s]
308.15 K, x2 = 0.0945	155 ± 6.4
308.15 K, x2 = 0.8199	5.32 ± 0.11
328.15 K, x2 = 0	67.9 ± 1.6
328.15 K, x2 = 0.7274	4.82 ± 0.1
338.15 K, x2 = 0.0945	38.2 ± 0.88
338.15 K, x2 = 0.5383	10.76 ± 0.24
338.15 K, x2 = 0.8199	3.09 ± 0.07
348.15 K, x2 = 0.0945	26.97 ± 0.62

CCCCCCCC[n+]1ccc2ccccc2c1.O=S(=O)([N-]S(=O)(=O)C(F)(F)F)C(F)(F)F + c1ccsc1
Details	viscosity [mPa·s]
298.15 K, x2 = 0.542	42.73 ± 0.94
298.15 K, x2 = 0.821	7.64 ± 0.16
308.15 K, x2 = 0.0964	158.7 ± 6.6
308.15 K, x2 = 0.542	27.8 ± 0.61
308.15 K, x2 = 0.6385	16.12 ± 0.35
308.15 K, x2 = 0.821	6.02 ± 0.13
308.15 K, x2 = 0.9065	2.78 ± 0.06
318.15 K, x2 = 0	108.7 ± 3.6
318.15 K, x2 = 0.0964	92.2 ± 2.7
318.15 K, x2 = 0.2739	54.7 ± 1.2
318.15 K, x2 = 0.9065	2.36 ± 0.05
338.15 K, x2 = 0.3572	20.4 ± 0.46
348.15 K, x2 = 0.4456	11.37 ± 0.25
